Data as given in ChEMBL document CHEMBL1201862, “PubChem BioAssay data set” (2004).
Active and inactive are the calls of the source.

What was measured:
[1] = inhibitors of intracellular T. cruzi replication, confirmation, NIH3T3 host cells, beta-gal luminescence (AID 2044); format: functional, cell-based;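 note: intracellular parasites grown in NIH/3T3 mouse fibroblasts as host cells; luminescent beta-galactosidase reporter signal from transgenic T. cruzi replicating inside host cells; inhibitors lower the luminescence signal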
[2] = cytotoxicity toward NIH3T3 fibroblasts, dose response, counter-screen, cell-based, ATP luminescence, mouse fibroblasts (AID 2010); format: functional;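 note: cells exposed to compound for about 90 hours before reading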
[3] = cells
[4] = biological target: T1, Estrogen receptor beta (Homo sapiens, UniProt Q92731);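 note: recombinant ER-beta bound to coactivator SRC1 peptide in presence of estradiol agonist; inhibitors block coactivator peptide binding and lower the FRET signal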
[5] = biological target: T1, Estrogen receptor beta; assay: ERβ–SRC-3 coactivator interaction inhibitors, confirmation, orthogonal assay, biochemical, ELISA, streptavidin-HRP readout (AID 1060)
[6] = biological target: Serine/threonine-protein phosphatase PP1-alpha catalytic subunit (Homo sapiens, UniProt P62136); assay: PP1 phosphatase inhibitors, dose response, biochemical, fluorescence (AID 2394)
[7] = Luminescence Cell-Based Dose Confirmation HTS to Identify Activators of 5'UTR Stem-Loop Driven Alpha-Synuclein mRNA Translation in H4 Neuroglioblastoma Cells. [Related pubchem assays: 1829 (Project Summary), 1814 (Primary HTS)]; format: functional
[8] = Luminescence Cell-Based Dose Response HTS to Identify Activators of Luciferase Translation or Activity in H4 […] Cells. [Related pubchem assays: 1829 (Project Summary), 1814 (Primary HTS)]; format: functional
[9] = biological target: T2, SUMO-activating enzyme (Homo sapiens, UniProt Q9UBT2); assay: SUMOylation inhibitor hit validation, confirmation, SUMOylation inhibitor project, biochemical, AlphaScreen (AID 2018); format: functional
[10] = test system: H4; assay: Luminescence Cell-Based Dose Response HTS to Identify Activators of 5'UTR Stem-Loop Driven Prion Protein mRNA Translation in H4 Neuroglioblastoma Cells. [Related pubchem assays: 1829 (Project Summary), 1814 (Primary HTS)]; format: functional; settings: Homo sapiens
[11] = biological target: T2, SUMO-activating enzyme; assay: inhibitors of in vitro SUMOylation cascade, primary screen, biochemical, HTRF, uHTS (AID 2006); format: protein-complex assay
[12] = biological target: T3, Serine/threonine-protein phosphatase (Homo sapiens, UniProt Q9BPW0); assay: PP5 phosphatase inhibitors, dose response, biochemical, fluorescence (AID 2395)
T3 sequence (Q9BPW0 whole entry): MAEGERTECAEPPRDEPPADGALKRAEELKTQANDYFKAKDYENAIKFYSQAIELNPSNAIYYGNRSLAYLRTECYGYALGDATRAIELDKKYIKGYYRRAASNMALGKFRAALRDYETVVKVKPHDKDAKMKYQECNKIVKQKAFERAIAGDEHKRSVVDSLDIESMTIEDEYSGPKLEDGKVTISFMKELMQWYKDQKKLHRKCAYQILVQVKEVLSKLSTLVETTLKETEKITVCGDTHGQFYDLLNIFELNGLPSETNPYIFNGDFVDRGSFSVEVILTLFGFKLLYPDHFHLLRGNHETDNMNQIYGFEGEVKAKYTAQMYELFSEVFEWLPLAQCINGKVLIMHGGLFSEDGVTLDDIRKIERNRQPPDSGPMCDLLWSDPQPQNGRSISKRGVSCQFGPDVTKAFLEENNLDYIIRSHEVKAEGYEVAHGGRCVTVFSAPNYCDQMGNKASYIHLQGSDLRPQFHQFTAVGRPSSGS

[13] = biological target: T4, Replicative DNA helicase DnaB (Mycobacterium tuberculosis, UniProt P9WMR3); assay: DnaB intein splicing inhibitors, dose response, biochemical, cell-free fluorescence (AID 449749); format: functional
T4 sequence (P9WMR3 whole entry): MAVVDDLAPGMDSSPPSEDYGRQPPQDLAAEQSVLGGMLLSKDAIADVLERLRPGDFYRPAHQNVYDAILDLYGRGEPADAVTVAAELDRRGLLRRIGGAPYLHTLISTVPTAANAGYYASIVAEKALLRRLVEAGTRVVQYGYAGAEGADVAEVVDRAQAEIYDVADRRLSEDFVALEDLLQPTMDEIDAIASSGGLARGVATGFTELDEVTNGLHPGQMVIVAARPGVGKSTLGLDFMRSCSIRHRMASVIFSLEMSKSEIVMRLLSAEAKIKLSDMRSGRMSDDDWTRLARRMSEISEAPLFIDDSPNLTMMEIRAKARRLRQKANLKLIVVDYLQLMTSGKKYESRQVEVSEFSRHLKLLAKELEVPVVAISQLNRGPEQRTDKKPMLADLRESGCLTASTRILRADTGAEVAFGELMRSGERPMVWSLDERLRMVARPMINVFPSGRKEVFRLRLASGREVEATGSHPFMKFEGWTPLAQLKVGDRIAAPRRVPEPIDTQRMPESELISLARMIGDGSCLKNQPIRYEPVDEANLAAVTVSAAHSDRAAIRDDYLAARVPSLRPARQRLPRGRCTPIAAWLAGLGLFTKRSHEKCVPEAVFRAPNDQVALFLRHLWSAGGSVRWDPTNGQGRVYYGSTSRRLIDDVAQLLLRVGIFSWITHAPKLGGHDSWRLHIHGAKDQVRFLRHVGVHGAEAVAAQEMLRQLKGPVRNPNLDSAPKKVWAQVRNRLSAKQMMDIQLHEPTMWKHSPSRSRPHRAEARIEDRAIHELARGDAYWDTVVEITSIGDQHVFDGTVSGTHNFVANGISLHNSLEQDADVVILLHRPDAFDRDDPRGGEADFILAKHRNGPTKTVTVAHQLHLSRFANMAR

[14] = biological target: T5, Protein RecA (Mycobacterium tuberculosis, UniProt P9WHJ3); assay: Fluorescence Cell-Free Homogeneous Dose Retest to Identify Inhibitors of RecA-Intein Splicing Activity. [Related pubchem assays (depositor defined):AID2097, AID2223, AID489010, AID492950]; format: functional
T5 sequence (P9WHJ3 whole entry): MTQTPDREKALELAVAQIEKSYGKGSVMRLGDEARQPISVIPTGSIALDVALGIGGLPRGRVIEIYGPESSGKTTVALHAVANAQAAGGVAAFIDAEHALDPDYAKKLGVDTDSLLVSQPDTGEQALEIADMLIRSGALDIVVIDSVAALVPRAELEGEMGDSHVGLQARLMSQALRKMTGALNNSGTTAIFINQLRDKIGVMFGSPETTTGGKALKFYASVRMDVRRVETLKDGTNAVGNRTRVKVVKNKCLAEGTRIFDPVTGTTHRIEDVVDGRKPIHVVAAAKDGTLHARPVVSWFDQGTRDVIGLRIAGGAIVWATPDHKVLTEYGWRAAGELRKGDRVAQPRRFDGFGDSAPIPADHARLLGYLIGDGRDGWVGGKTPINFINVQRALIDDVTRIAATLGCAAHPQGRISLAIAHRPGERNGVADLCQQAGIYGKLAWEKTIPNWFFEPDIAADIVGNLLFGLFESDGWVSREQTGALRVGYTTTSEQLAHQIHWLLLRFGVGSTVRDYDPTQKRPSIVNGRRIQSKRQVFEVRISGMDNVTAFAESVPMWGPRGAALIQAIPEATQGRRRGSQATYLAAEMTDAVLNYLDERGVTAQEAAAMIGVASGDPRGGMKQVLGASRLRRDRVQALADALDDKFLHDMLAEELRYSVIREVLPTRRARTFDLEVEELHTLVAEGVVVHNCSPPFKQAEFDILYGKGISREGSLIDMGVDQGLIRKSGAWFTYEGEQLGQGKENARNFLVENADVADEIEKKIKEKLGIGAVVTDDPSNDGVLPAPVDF

[15] = biological target: T6, Bcl-2-like protein 10 (Homo sapiens, UniProt Q9HD36); assay: displacers of TR3 peptide from Bcl-B, primary screen, selectivity assay for Bfl-1 inhibitor project, biochemical, fluorescence polarization, FITC-TR3 peptide (AID 748);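 note: fluorescence polarization from a fluorescein-labelled TR3 peptide binding purified Bcl-B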
T6 sequence (Q9HD36 whole entry): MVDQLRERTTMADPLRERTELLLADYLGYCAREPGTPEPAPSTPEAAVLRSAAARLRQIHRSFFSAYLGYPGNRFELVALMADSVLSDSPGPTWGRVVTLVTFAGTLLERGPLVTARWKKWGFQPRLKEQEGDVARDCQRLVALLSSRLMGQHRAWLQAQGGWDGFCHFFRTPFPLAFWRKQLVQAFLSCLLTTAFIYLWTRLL

[16] = biological target: T7, Apoptotic protease-activating factor 1 (Homo sapiens, UniProt O14727); format: functional
T7 sequence (O14727 whole entry): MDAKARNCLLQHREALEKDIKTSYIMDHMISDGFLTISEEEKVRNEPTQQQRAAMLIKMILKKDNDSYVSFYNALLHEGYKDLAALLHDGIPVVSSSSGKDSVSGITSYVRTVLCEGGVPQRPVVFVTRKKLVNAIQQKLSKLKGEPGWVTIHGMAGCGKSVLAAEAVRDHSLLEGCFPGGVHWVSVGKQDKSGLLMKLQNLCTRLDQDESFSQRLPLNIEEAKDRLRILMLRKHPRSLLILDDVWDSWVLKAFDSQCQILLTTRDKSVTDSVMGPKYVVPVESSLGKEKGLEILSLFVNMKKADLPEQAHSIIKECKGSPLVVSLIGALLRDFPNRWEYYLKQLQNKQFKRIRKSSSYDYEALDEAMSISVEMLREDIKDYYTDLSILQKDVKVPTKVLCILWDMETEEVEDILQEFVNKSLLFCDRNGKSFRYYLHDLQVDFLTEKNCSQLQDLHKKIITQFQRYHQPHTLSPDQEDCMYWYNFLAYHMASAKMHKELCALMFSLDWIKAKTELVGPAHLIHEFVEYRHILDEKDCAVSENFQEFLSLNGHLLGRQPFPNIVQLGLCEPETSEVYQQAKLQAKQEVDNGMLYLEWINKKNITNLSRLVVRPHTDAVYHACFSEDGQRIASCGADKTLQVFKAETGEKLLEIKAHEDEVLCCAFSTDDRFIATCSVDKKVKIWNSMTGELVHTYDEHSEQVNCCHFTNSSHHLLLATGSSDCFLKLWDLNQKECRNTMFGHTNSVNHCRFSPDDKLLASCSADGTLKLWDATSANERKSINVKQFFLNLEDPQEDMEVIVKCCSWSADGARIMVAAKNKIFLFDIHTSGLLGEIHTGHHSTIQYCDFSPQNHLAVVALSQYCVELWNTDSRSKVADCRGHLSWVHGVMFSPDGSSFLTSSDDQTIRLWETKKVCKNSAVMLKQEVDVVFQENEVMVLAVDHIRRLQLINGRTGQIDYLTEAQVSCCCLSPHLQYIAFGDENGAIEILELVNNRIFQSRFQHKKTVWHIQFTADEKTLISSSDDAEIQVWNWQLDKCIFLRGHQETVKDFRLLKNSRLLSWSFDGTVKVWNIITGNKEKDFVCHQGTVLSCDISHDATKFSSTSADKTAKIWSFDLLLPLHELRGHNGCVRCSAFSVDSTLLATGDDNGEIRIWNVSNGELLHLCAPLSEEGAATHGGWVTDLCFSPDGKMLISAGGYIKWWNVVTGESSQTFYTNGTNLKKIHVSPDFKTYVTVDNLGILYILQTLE

[17] = biological target: Genome polyprotein (dengue virus type 2, UniProt P29990); assay: Dengue-2 NS5 methyltransferase inhibitors, primary screen, biochemical, confirmation dose response (AID 588689); format: functional
[18] = biological target: T8, Mucolipin-3 (Homo sapiens, UniProt Q8TDD5); assay: Dose response cell-based high-throughput screening assay for agonists of the transient receptor potential channel ML3 (TRPML3). [Related pubchem assays: 1526, 1424, 1448 ]; format: functional
T8 sequence (Q8TDD5 whole entry): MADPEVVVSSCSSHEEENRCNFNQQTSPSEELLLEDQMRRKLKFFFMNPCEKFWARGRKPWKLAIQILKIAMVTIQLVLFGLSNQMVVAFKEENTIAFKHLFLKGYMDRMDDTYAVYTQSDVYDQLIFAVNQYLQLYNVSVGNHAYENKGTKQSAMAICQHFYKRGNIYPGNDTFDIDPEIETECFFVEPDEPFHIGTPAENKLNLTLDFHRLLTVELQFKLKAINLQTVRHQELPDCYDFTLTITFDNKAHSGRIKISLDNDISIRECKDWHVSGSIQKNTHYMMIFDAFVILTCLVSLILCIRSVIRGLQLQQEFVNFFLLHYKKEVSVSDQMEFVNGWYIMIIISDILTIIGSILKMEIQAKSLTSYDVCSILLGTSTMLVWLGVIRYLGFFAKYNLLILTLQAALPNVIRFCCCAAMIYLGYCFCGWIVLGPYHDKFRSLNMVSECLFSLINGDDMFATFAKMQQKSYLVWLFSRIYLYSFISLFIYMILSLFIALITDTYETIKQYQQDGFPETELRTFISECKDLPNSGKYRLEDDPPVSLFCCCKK

[19] = biological target: Ion channel NompC (Danio rerio, UniProt Q7T1G6); assay: Fluorescence counterscreen assay for TRPML3 agonists: dose response cell-based high-throughput screening assay to identify agonists of the transient receptor potential channel N1 (TRPN1). [Related pubchem assays: 1526, 1424, 1448 ]; format: functional
Chain of Ion channel NompC (Q7T1G6 whole entry): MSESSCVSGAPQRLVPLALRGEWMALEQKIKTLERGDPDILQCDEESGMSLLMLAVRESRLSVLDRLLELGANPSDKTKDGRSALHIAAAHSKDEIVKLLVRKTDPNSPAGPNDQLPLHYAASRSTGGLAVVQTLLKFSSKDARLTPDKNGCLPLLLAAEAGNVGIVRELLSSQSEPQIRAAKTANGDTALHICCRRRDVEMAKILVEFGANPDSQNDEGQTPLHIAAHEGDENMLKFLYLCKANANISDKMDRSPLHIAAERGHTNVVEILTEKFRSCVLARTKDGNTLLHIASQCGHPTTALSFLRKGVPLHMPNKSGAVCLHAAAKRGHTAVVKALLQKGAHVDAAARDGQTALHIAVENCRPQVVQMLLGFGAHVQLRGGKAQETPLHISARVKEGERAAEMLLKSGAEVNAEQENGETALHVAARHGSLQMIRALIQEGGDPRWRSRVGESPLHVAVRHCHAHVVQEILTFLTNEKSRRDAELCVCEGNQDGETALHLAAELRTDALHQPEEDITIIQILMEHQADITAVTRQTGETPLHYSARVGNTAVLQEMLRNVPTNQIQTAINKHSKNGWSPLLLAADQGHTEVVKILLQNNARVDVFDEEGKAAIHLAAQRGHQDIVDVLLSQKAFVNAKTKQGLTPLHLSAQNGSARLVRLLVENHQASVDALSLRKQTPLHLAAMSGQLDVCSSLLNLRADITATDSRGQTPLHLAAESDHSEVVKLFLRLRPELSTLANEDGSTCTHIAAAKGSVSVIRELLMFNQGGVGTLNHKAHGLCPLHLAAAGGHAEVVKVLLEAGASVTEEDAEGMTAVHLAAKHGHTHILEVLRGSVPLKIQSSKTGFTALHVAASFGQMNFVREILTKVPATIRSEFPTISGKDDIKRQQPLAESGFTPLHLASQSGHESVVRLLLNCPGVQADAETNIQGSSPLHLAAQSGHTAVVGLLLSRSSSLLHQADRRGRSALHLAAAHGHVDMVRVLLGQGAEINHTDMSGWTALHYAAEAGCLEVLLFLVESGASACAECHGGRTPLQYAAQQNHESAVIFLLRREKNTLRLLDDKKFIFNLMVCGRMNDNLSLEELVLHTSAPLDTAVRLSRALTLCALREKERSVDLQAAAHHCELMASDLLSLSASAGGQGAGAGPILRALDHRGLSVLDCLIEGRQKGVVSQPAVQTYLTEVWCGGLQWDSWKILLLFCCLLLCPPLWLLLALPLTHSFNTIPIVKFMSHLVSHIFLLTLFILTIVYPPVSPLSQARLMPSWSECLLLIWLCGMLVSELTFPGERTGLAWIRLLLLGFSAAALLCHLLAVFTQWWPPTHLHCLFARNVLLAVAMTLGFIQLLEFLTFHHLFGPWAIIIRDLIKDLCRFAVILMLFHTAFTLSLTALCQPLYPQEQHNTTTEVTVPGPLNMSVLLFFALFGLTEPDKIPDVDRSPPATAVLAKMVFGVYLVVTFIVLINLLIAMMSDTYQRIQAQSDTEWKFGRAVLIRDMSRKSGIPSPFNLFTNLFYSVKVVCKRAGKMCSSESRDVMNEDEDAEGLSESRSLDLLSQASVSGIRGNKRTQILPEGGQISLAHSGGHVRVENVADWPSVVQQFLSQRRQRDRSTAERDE

T1 sequence (Q92731 whole entry): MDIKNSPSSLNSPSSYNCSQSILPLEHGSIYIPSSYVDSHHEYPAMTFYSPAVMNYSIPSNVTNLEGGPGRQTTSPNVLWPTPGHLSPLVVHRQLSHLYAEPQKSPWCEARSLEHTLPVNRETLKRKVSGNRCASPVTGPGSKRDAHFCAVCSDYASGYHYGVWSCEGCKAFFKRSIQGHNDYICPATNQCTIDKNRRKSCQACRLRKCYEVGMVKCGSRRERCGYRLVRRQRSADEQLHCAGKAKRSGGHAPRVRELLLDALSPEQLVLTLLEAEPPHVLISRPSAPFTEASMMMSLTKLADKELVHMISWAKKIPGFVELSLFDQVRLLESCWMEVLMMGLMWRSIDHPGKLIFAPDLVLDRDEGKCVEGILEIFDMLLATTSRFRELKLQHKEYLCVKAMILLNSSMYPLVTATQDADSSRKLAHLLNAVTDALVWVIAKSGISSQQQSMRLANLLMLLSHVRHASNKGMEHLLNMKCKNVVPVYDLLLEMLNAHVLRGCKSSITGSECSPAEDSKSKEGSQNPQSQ
T2 sequence (Q9UBE0 whole entry): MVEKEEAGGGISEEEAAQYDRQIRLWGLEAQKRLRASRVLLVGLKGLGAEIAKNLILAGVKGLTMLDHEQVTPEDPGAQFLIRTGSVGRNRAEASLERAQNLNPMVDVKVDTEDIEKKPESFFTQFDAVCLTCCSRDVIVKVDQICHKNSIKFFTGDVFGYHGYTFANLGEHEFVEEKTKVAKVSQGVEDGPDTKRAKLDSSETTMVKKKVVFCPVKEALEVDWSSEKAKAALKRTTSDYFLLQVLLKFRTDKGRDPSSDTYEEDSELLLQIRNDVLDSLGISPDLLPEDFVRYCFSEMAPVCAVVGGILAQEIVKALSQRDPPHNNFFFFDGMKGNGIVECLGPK
T2 sequence (Q9UBT2 whole entry): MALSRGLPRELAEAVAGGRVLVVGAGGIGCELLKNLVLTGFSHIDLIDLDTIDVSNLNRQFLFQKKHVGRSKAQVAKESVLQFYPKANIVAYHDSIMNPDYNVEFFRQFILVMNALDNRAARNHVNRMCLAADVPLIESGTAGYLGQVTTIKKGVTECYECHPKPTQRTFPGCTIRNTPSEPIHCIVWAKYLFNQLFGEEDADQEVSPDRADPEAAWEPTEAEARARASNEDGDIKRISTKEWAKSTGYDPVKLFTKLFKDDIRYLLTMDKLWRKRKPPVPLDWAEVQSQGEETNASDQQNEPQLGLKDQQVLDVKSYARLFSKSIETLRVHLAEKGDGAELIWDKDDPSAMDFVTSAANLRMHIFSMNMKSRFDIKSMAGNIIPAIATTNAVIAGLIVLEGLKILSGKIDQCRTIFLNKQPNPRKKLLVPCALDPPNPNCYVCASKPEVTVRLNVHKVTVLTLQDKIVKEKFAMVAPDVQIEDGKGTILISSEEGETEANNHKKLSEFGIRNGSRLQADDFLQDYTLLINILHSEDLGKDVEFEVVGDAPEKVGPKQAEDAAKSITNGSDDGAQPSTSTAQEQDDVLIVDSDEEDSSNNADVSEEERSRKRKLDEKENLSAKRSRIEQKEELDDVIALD
Chain of Serine/threonine-protein phosphatase PP1-alpha catalytic subunit (P62136 whole entry): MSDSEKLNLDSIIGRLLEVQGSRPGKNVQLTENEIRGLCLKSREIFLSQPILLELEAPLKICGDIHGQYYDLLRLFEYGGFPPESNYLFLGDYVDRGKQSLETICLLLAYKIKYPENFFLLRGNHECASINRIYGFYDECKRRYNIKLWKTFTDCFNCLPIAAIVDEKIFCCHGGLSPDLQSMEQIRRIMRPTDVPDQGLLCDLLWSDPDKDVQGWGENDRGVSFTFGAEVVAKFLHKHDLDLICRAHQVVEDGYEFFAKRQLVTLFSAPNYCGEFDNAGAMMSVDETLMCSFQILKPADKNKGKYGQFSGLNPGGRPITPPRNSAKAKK
Chain of Genome polyprotein (P29990 2492-3391 limits assumed): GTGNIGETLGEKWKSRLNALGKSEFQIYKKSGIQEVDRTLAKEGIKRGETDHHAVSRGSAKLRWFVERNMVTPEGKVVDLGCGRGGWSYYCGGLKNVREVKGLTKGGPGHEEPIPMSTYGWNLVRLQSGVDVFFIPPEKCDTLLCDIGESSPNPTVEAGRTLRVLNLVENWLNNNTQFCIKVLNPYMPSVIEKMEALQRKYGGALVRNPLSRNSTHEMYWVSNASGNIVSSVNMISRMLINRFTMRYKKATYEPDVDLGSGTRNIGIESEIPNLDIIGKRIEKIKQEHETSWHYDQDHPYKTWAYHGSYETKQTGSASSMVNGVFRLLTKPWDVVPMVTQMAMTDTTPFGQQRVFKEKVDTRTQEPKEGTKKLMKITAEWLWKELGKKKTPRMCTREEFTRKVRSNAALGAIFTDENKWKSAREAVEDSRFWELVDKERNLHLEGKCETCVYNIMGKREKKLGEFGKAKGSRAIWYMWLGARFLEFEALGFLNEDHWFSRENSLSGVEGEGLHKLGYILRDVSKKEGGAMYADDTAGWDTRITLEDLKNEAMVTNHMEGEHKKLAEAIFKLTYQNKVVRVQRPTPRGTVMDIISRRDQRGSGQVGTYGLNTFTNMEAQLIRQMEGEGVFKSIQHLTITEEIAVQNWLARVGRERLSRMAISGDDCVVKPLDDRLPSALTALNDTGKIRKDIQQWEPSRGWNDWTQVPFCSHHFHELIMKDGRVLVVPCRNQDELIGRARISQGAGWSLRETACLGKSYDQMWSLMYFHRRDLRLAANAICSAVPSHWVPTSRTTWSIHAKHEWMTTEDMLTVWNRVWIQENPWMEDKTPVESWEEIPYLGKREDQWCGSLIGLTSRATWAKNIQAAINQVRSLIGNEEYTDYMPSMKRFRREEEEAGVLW

## O=C(CNC1CCN(Cc2ccccc2)CC1)Nc1ccc(S(=O)(=O)N2CCCCC2)cc1
[1]
  EC50: < 0.1 µM (active)
[2]
  EC50: > 30 µM (not active)
[3]
  EC50: 0.019 µM (active)

## Oc1c2c(nc3ccccc13)C(=C1CCCC1)CC2
[4]
  IC50: 1.69 µM (active)
[5]
  IC50: > 109 µM (not active)

## O=C1c2ccccc2C(=O)C12OC2c1ccc(Cl)cc1 (stereo unspecified)
[6]
  IC50: > 67 µM (not active)
[7]
  EC50: > 120 µM (not active)
[8]
  EC50: > 120 µM (not active)
[9]
  IC50: 7.05 µM (active)
[10]
  EC50: > 120 µM (not active)
[11]
  IC50: 21.2 µM (active)
[12]
  IC50: > 2.48 µM (active)
[13]
  AC50: 1.61 µM (active)
[14]
  EC50: 22.2 µM (inconclusive)

## Nc1cc2nsnc2cc1Br
[6]
  IC50: > 67 µM (not active)
[15]
  IC50: 13.3 µM (active)
[12]
  IC50: > 2.48 µM (active)
[16]
  IC50: 3.21 µM (active)
[17]
  IC50: 48.7 µM (active)

## CCOC(=O)c1cnn(-c2nc(SC)nc3sc4c(c23)CCC4)c1N
[4]
  IC50: > 50 µM (not active)
[5]
  IC50: 0.069 µM (not active)

## Cc1ccc(SCCOCCN2CCc3ccccc3C2)cc1
[1]
  EC50: < 0.1 µM (active)
[2]
  EC50: > 60 µM (not active)
[3]
  EC50: 0.037 µM (active)

## O=C1CCCN1CC#CCN1CCCC1 [OXOTREMORINE]
[18]
  EC50: > 29.9 µM (not active)
[19]
  EC50: > 29.9 µM (not active)
